In patent US10676479B2, “Imidazolepyridine compounds and uses thereof” (Novartis AG, priority 2016, dated 2020) one finds IC50 data, which are given here for 21 compounds.

As a reminder, the IC50 is the point on the concentration scale where inhibition reaches its midpoint.

The target of one assay is EED (1-441)-His protein (Homo sapiens (Human), UniProt O75530). Put plainly: EED-H3K27Me3 peptide competition binding assay by AlphaScreen. The note with it: EED Alphascreen binding Qualified assay. Here is the method: Then 4 μL of detection beads mix was added to the plate and incubate in the dark at the rt for 1 h. The final concentration of donor and acceptor beads was 10 μg/mL for each. […] The data were then fit to a dose response equation using the program Helios (Novartis) to get the IC50 values. […] Sebaugh, J. […] Each compound was counter screened to determine if it interfered with the AlphaScreen beads. […] The plates were then incubated for 1 h at rt in dark before being read on EnVison.
Background: Bead proximity is the source of the signal in Alpha formats.

For assay [1], the target named is wild type PRC2 (wtPRC2) complex (Homo sapiens (Human), UniProt O75530). Put plainly: EED LC-MS assay. Type of assay: biochemical. The note with it: EED LC-MS Qualified assay; read-out: (b) IC50. Here is the method:
EED LC-MS Assay Representative compounds of the present invention were serially and separately diluted 3-fold in DMSO to obtain a total of eight or twelve concentrations. […] A 6 μL solution of 3 μM of the peptide substrate H3K27Me0 (histone H3[21-44]-biotin) in reaction buffer was added to initiate each reaction. […] The data were then fit to a dose response equation using the program Helios to get the IC50 values of the test compound.

Assay [2] concerns H3K27 methylation in G401 cell. As to the kind of experiment: ELISA (H3K27 methylation) assay. The note with it: Homo sapiens, G-401, ELISA Qualified assay, 48 h, read-out: (c) IC50. Type of assay: cell-based. The protocol:
ELISA (H3K27 Methylation) Assay
Representative compounds of the present invention were serially and separately diluted 3-fold in DMSO to obtain a total of eight or twelve concentrations. Then the compounds were added to G401 cell cultured in 384-well plate at 1:500 dilution to obtain the highest concentration of 20 μM. The cells were further cultured for 48 h before ELISA procedure.
ELISA protocol: Cell lysates were transferred to the wells of a 384-well plate and the final volume was adjusted to 50 μL per well with PBS. The plate was sealed, centrifuged at 2,000 rpm for 2 min and incubated at 4° C. for about 16 h. The plate was washed with TBST buffer (1×TBS (10×TBS: 24.2 g Tris (Sigma, T6066), 80 g NaCl (Sigma, S3014) to 1 L of water and adjust pH to 7.6 with HCl) with 0.1% Tween-20). Blocking buffer (TBST, 5% BSA; 50 μL per well) was added and the plate was incubated for 1 h at rt. The blocking buffer was removed and primary antibody was added (30 μL per well). […] The primary antibody was incubated in the plate at rt for 1 h. The wells were washed with TBST and incubated with secondary antibody for 1 h at rt. […] After 1 h of incubation at rt, the wells were washed with TBST. […] The signal was read using a PerkinElmer Envision Reader. The H3K27 methylation readouts were normalized using H3 signal and then percentage inhibition was calculated against the samples treated with DMSO. The data were then fit to a dose response curve using the program Helios to get the IC50 values of the test compound.
Background: An ELISA detects its analyte on a solid surface through an enzyme-linked reagent.

Sequence of EED (1-441)-His protein (O75530 whole entry): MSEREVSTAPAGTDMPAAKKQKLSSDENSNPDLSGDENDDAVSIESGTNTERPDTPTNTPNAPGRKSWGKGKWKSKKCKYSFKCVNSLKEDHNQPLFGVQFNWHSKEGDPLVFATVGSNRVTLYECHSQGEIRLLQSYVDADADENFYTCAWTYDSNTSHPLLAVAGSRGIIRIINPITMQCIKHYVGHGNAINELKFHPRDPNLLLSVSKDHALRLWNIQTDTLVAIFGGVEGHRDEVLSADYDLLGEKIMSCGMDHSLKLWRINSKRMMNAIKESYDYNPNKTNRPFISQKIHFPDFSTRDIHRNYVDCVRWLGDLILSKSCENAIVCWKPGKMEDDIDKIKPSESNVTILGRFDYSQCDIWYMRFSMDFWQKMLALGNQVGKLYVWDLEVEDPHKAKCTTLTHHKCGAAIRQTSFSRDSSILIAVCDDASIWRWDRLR
Sequence of wild type PRC2 (wtPRC2) complex (O75530 whole entry): as above
Sequence of wild type PRC2 (wtPRC2) complex (Q15910 whole entry partner): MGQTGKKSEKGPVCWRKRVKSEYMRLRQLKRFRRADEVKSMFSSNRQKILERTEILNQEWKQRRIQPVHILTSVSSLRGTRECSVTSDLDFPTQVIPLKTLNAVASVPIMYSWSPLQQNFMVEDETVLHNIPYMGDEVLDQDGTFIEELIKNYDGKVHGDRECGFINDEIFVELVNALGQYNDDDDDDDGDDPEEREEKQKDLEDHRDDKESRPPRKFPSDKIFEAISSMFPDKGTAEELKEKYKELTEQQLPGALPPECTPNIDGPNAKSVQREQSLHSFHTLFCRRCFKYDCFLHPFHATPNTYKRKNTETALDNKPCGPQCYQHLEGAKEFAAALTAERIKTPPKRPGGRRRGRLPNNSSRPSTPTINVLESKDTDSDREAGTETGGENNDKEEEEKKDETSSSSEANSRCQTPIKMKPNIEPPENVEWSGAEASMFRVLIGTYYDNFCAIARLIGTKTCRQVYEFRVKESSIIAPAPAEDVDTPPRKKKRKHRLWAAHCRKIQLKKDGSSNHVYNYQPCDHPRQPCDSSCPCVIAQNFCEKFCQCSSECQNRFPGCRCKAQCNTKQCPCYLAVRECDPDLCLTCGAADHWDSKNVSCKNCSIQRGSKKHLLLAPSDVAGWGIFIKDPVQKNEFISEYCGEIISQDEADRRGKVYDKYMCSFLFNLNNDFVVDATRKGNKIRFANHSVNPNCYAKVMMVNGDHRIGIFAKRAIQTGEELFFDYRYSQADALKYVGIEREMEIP
Sequence of wild type PRC2 (wtPRC2) complex (Q15022 whole entry partner): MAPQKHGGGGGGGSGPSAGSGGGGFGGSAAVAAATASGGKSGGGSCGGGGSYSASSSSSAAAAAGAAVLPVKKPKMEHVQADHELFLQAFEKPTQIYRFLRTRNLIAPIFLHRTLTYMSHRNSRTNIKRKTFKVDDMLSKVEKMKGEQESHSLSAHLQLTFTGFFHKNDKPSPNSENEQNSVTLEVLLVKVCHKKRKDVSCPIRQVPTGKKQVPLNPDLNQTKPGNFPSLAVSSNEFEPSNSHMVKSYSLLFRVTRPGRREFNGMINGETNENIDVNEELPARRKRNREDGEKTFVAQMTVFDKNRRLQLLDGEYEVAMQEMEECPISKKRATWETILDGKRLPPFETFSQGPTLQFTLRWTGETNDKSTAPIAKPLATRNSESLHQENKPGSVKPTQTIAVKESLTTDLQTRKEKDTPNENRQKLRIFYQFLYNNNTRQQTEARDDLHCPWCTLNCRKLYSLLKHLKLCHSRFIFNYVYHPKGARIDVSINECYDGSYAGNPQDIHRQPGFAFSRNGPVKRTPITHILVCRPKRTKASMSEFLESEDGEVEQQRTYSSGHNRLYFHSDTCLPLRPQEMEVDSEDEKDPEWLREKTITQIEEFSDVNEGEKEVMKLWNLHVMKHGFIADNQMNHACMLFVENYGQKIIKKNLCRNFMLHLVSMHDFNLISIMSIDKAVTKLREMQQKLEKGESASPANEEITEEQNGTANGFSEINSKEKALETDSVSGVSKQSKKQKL

For `CC(c1ccc(-c2cnc(NCc3c(F)ccc4c3CCO4)n3cnc(C#N)c23)cc1)N1CCCC1` (stereo not shown) [Example 76, 5-(((5-fluoro-2,3-dihydrobenzofuran-4-yl)methyl)amino)-8-(4-(1-(pyrrolidin-1-yl)ethyl)phenyl)imidazo[1,5-c]pyrimidine-1-carbonitrile], the IC50 is 5.6 nM at EED (1-441)-His protein, 15.3 nM in assay [1] and 5.4 nM in assay [2].
As to `Cc1ncc(-c2cnc(NCc3c(F)ccc4c3CCO4)n3cnc([S+]([O-])c4ccccc4)c23)c(C)n1` (stereo not shown) [Example 14, 8-(2,4-Dimethylpyrimidin-5-yl)-N-((5-fluoro-2,3-dihydrobenzofuran-4-yl)methyl)-1-(phenylsulfinyl)imidazo[1,5-c]pyrimidin-5-amine], the IC50 on EED (1-441)-His protein was 10.4 nM; in assay [1], 23.4 nM; in assay [2], 4.9 nM.
On the same counts, the results for `CNC(=O)c1ncn2c(NCc3c(F)ccc4c3CCO4)ncc(-c3cccnc3C)c12` [Example 2, 5-(((5-Fluoro-2,3-dihydrobenzofuran-4-yl)methyl)amino)-N-methyl-8-(2-methylpyridin-3-yl)imidazo[1,5-c]pyrimidine-1-carboxamide] are 12.3 nM, 26.7 nM and 12.6 nM.
As for `O=C(c1ccc(-c2cnc(NCc3c(F)ccc4c3CCO4)n3cncc23)cc1)N1CCCC1` [Example 37, (4-(5-(((5-fluoro-2,3-dihydrobenzofuran-4-yl)methyl)amino)imidazo[1,5-c]pyrimidin-8-yl)phenyl)(pyrrolidin-1-yl)methanone], the IC50 was determined as 16.2 nM at EED (1-441)-His protein, 41.9 nM in assay [1] and 81.9 nM in assay [2].
`Cc1nn(CCO)c(C)c1-c1cnc(NCc2c(F)ccc3c2CCO3)n2cnc(C#N)c12` [Example 88, 5-(((5-fluoro-2,3-dihydrobenzofuran-4-yl)methyl)amino)-8-(1-(2-hydroxyethyl)-3,5-dimethyl-1H-pyrazol-4-yl)imidazo[1,5-c]pyrimidine-1-carbonitrile]: the 50% inhibitory concentration (IC50) at EED (1-441)-His protein is 3.4 nM; in assay [1], 11.7 nM; in assay [2], 13 nM.
On the same counts, the results for `Fc1ccc2c(c1CNc1ncc(-c3cnccc3C(F)F)c3cncn13)CCO2` [Example 52, 8-(4-(difluoromethyl)pyridin-3-yl)-N-((5-fluoro-2,3-dihydrobenzofuran-4-yl)methyl)imidazo[1,5-c]pyrimidin-5-amine] are 10.2 nM, 17.8 nM and 42.5 nM.
Turning to `N#Cc1ncn2c(NCc3c(F)ccc4c3CCO4)ncc(-c3cccnc3)c12` [Example 74, 5-(((5-fluoro-2,3-dihydrobenzofuran-4-yl)methyl)amino)-8-(pyridin-3-yl)imidazo[1,5-c]pyrimidine-1-carbonitrile], the figures for the IC50 (on EED (1-441)-His protein; in assay [1]; in assay [2]) were 5.9 nM, 15.6 nM and 7 nM, respectively.
`Cc1ncccc1-c1cnc(NCc2c(F)ccc3c2CCO3)n2cnc(C(=O)NC3COC3)c12` [Example 106, 5-(((5-fluoro-2,3-dihydrobenzofuran-4-yl)methyl)amino)-8-(2-methylpyridin-3-yl)-N-(oxetan-3-yl)imidazo[1,5-c]pyrimidine-1-carboxamide]: the IC50 was 16.5 nM in assay [1] and 10.9 nM in assay [2].
As to `CN(C)Cc1ccc(-c2cnc(NCc3cccc4occc34)n3cncc23)cc1` [Example 64, N-(benzofuran-4-ylmethyl)-8-(4-((dimethylamino)methyl)phenyl)imidazo[1,5-c]pyrimidin-5-amine], the IC50 worked out at 55.4 nM at EED (1-441)-His protein, 54.7 nM in assay [1] and 403 nM in assay [2].
As for `CS(=O)(=O)c1cccc(-c2cnc(NCc3c(F)ccc4c3CCO4)n3cncc23)c1` [Example 27, N-((5-fluoro-2,3-dihydrobenzofuran-4-yl)methyl)-8-(3-(methylsulfonyl)phenyl)imidazo[1,5-c]pyrimidin-5-amine], the 50% inhibitory concentration (IC50) at EED (1-441)-His protein is 24.1 nM; in assay [1] it was 23.5 nM; in assay [2], 43 nM.
As to `Cc1cc(-c2cnc(NCc3c(F)ccc4c3CCO4)n3cncc23)n(C)n1` [Example 45, 8-(1,3-dimethyl-1H-pyrazol-5-yl)-N-((5-fluoro-2,3-dihydrobenzofuran-4-yl)methyl)imidazo[1,5-c]pyrimidin-5-amine], the IC50 was determined as 5.1 nM on EED (1-441)-His protein, 8.4 nM in assay [1] and 17.9 nM in assay [2].
Regarding `Cc1cc(-c2cnc(NCc3c(F)ccc4c3CCO4)n3cncc23)ccc1S(C)(=O)=O` [Example 48, N-((5-fluoro-2,3-dihydrobenzofuran-4-yl)methyl)-8-(3-methyl-4-(methylsulfonyl)phenyl)imidazo[1,5-c]pyrimidin-5-amine], the IC50 at EED (1-441)-His protein came to 10.5 nM; in assay [1], 16.4 nM; in assay [2], 34.1 nM.
For the compound `OCCc1ccc(-c2cnc(NCc3c(F)ccc4c3CCO4)n3cncc23)cn1` [Example 34, 2-(5-(5-(((5-fluoro-2,3-dihydrobenzofuran-4-yl)methyl)amino)imidazo[1,5-c]pyrimidin-8-yl)pyridin-2-yl)ethan-1-ol], the figures for the IC50 (at EED (1-441)-His protein; in assay [1]; in assay [2]) were 21.7 nM, 40.1 nM and 59.5 nM, respectively.
As to `Cc1nc(N2CCOCC2)ncc1-c1cnc(NCc2c(F)ccc3c2CCO3)n2cnc(C#N)c12` [Example 84, 5-(((5-fluoro-2,3-dihydrobenzofuran-4-yl)methyl)amino)-8-(4-methyl-2-morpholinopyrimidin-5-yl)imidazo[1,5-c]pyrimidine-1-carbonitrile], the IC50 on EED (1-441)-His protein is 2.4 nM; in assay [1] it was 11 nM; in assay [2] it was 11.7 nM.
`CN(C)Cc1ccc(-c2cnc(NCc3c(F)ccc4c3CCO4)n3cncc23)cc1` [Example 17, 8-(4-((dimethylamino)methyl)phenyl)-N-((5-fluoro-2,3-dihydrobenzofuran-4-yl)methyl)imidazo[1,5-c]pyrimidin-5-amine]: the concentration for half-maximal inhibition (IC50) came out at 12.6 nM on EED (1-441)-His protein, 25.7 nM in assay [1] and 32.1 nM in assay [2].
Consider `Fc1ccc2c(c1CNc1ncc(-c3ccncc3)c3cncn13)CCO2` [Example 20, N-((5-fluoro-2,3-dihydrobenzofuran-4-yl)methyl)-8-(pyridin-4-yl)imidazo[1,5-c]pyrimidin-5-amine], for which the results for the IC50 (at EED (1-441)-His protein; in assay [1]; in assay [2]) were 21.2 nM, 44.1 nM and 81.1 nM, respectively.
Take `COc1cccc(F)c1CNc1ncc(-c2ccc(CN(C)C)cc2)c2cncn12` [Example 68, 8-(4-((dimethylamino)methyl)phenyl)-N-(2-fluoro-6-methoxybenzyl)imidazo[1,5-c]pyrimidin-5-amine]: the figures for the IC50 (at EED (1-441)-His protein; in assay [1]) were 201 nM and 246 nM, respectively.
In the case of `Cc1ncccc1-c1cnc(NCc2c(F)ccc3c2CCO3)n2cnc(C(=O)N(C)C)c12` [Example 105, 5-(((5-fluoro-2,3-dihydrobenzofuran-4-yl)methyl)amino)-N,N-dimethyl-8-(2-methylpyridin-3-yl)imidazo[1,5-c]pyrimidine-1-carboxamide], the IC50 was determined as 10.8 nM at EED (1-441)-His protein, 30.4 nM in assay [1] and 40.1 nM in assay [2].
Turning to `CCOC(=O)c1ncn2c(NCc3c(F)ccc4c3CCO4)ncc(-c3cccnc3C)c12` [Example 95, ethyl 5-(((5-fluoro-2,3-dihydrobenzofuran-4-yl)methyl)amino)-8-(2-methylpyridin-3-yl)imidazo[1,5-c]pyrimidine-1-carboxylate], the concentration for half-maximal inhibition (IC50) amounted to 5.5 nM at EED (1-441)-His protein and 2 nM in assay [2].
In the case of `CCN1CCN(c2ccc(-c3cnc(NCc4c(F)ccc5c4CCO5)n4cnc(C#N)c34)cn2)CC1` [Example 81, 8-(6-(4-ethylpiperazin-1-yl)pyridin-3-yl)-5-(((5-fluoro-2,3-dihydrobenzofuran-4-yl)methyl)amino)imidazo[1,5-c]pyrimidine-1-carbonitrile], the IC50 turned out to be 35.1 nM in assay [1] and 14.8 nM in assay [2].
Take `CS(=O)(=O)c1ccc(-c2cnc(NCc3c(F)ccc4c3CCO4)n3cnc(-c4ccccc4)c23)cc1` [Example 110, N-((5-fluoro-2,3-dihydrobenzofuran-4-yl)methyl)-8-(4-(methylsulfonyl)phenyl)-1-phenylimidazo[1,5-c]pyrimidin-5-amine]: the IC50 amounted to 9.4 nM in assay [1] and 72.2 nM in assay [2].
